Literature values as cited in patent EP4729597A1, “LOW-ALCOHOL BEER-LIKE BEVERAGE AND METHOD FOR PRODUCING LOW-ALCOHOL BEER-LIKE BEVERAGE” (Asahi Group Holdings, Ltd., priority 2023, dated 2024).
Like-named read-outs stand apart in the source and are kept apart here.

[1] = Table 1, octanol/water partition coefficient

| SMILES | LogP [1] | LogP (Table 3) | LogP |
| --- | --- | --- | --- |
| CC(C)=CCCC(C)CCO (centres unmarked) [Citronellol] | 3.9 | 3.9 |  |
| CCCCCCCC(=O)OCC [Ethyl octanoate] | 3.8 | 3.8 |  |
| C=CC(=C)CCC=C(C)C [Myrcene] | 4.3 | 4.3 |  |

Next, values leading:

| LogP [1] | LogP (Table 3) | LogP | SMILES |
| --- | --- | --- | --- |
| 3.6 | 3.6 |  | CC(C)=CCC/C(C)=C/CO [Geraniol] |
|  | 2.3 | 2.3 | CC(=O)OCCC(C)C [Isoamyl acetate] |
| 4.0 |  |  | CC(=O)/C=C/C1=C(C)CCCC1(C)C [β-ionone] |
